Measurements published in patent US20070049593A1 (priority 2004, published 2007).
Counter-ions that a name gives are not always drawn.

Target: T1, HCV polymerase (Hepatitis C virus genotype 1b, UniProt P26663)
T1 construct: a region encoding NS5B (J Virol 1991 March, 65(3), 1105-13, 544 amino acids after deletion of 47 amino acids on the C-terminal); 6xHis (C); made in house; host or cells: Escherichia coli
Assay: biochemical
Design: species or system HCV BK strain
In short: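 Recombinant HCV BK-strain NS5B (C-terminal 47 aa deleted, His6-tagged, E. coli), 0.5 μg/ml, run with 5 μg/ml in vitro-transcribed RNA template (polyU/3′X), ATP/GTP/CTP 50 μM, UTP 2 μM plus [3H]UTP, pH 7.5, 25° C, 90 min. TCA-precipitated RNA counted by scintillation; IC50 from activity with vs without compound.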

T1 sequence (P26663 2420-2963): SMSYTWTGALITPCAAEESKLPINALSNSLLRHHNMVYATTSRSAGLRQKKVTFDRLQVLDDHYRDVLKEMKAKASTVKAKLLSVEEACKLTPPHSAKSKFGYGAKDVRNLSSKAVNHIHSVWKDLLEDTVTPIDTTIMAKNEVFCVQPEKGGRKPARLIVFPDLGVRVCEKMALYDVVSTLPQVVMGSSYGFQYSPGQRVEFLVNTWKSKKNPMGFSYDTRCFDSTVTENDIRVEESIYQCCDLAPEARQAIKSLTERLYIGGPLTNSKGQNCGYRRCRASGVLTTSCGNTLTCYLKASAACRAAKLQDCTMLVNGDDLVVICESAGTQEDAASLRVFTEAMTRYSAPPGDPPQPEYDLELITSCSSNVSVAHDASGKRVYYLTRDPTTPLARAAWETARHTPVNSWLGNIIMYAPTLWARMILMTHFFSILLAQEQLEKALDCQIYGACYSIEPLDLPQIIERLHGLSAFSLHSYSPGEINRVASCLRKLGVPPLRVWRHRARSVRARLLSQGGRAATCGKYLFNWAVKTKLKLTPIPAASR

| Structure (SMILES) | IC50 [nM] |
| --- | --- |
| COC(=O)[C@@H]1Cc2ccc(O)cc2CN1C(=O)c1ccc2c(C3CCCCC3)c3n(c2c1)CCOc1cc(OC)ccc1-3 [Example 2-281, methyl (S)-2-(12-cyclohexyl-3-methoxy-6,7-dihydro-5-oxa-7a-azadibenzo[a,e]azulene-9-carbonyl)-7-hydroxy-1,2,3,4-tetrahydroisoquinoline-3-carboxylate] | 100 to 1000 |
| COC(=O)c1cc2[nH]c(C(C)(C)NC(=O)c3ccc4c(C5CCCCC5)c5n(c4c3)CCOc3ccccc3-5)nc2cc1C [Example 2-282, methyl 2-{1-[(12-cyclohexyl-6,7-dihydro-5-oxa-7a-azadibenzo[a,e]azulene-9-carbonyl)amino]-1-methylethyl}-6-methyl-3H-benzimidazole-5-carboxylate] | < 100 |
| Cc1cc2nc(C(C)(C)NC(=O)c3ccc4c(C5CCCCC5)c5n(c4c3)CCOc3ccccc3-5)[nH]c2cc1C(=O)O [Example 2-283] | < 100 |
| COC(=O)Cn1c(C(C)(C)NC(=O)c2ccc3c(C4CCCCC4)c4n(c3c2)CCOc2ccccc2-4)nc2ccccc21 [Example 2-284, methyl (2-{1-[(12-cyclohexyl-6,7-dihydro-5-oxa-7a-azadibenzo[a,e]azulene-9-carbonyl)amino]-1-methylethyl}benzimidazol-1-yl)acetate] | < 100 |
| Cn1c(C(C)(C)NC(=O)c2ccc3c(C4CCCCC4)c4n(c3c2)CCOc2ccccc2-4)nc2ccccc21 [Example 2-285, N-[1-methyl-1-(1-methyl-1H-benzimidazol-2-yl)ethyl]-12-cyclohexyl-6,7-dihydro-5-oxa-7a-azadibenzo[a,e]azulene-9-carboxamide] | < 100 |
| Cn1c(NC(=O)c2ccc3c(C4CCCCC4)c4n(c3c2)CCOc2ccccc2-4)nc2ccccc21 [Example 2-286, N-(1-methyl-1H-benzimidazol-2-yl)-12-cyclohexyl-6,7-dihydro-5-oxa-7a-azadibenzo[a,e]azulene-9-carboxamide] | 100 to 1000 |
| O=C(O)CN1CCC(CO)(NC(=O)c2ccc3c(C4CCCCC4)c4n(c3c2)CCOc2ccccc2-4)CC1 [Example 2-287, {4-[(12-cyclohexyl-6,7-dihydro-5-oxa-7a-azadibenzo[a,e]azulene-9-carbonyl)amino]-4-hydroxymethylpiperidin-1-yl}acetic acid monohydrochloride] | 100 to 1000 |
| O=C(NCc1nc2ccccc2n1CCO)c1ccc2c(C3CCCCC3)c3n(c2c1)CCOc1ccccc1-3 [Example 2-288, N-[1-(2-hydroxyethyl)-1H-benzimidazol-2-ylmethyl]-12-cyclohexyl-6,7-dihydro-5-oxa-7a-azadibenzo[a,e]azulene-9-carboxamide] | < 100 |
| CC(C)(NC(=O)c1ccc2c(C3CCCCC3)c3n(c2c1)CCOc1ccccc1-3)C(=O)N1CCOCC1 [Example 2-289, N-[1,1-dimethyl-2-(morpholin-4-yl)-2-oxoethyl]-12-cyclohexyl-6,7-dihydro-5-oxa-7a-azadibenzo[a,e]azulene-9-carboxamide] | < 100 |
| CN1CCN(C(=O)C(C)(C)NC(=O)c2ccc3c(C4CCCCC4)c4n(c3c2)CCOc2ccccc2-4)CC1 [Example 2-290, N-[1,1-dimethyl-2-(4-methylpiperazin-1-yl)-2-oxoethyl]-12-cyclohexyl-6,7-dihydro-5-oxa-7a-azadibenzo[a,e]azulene-9-carboxamide] | 100 to 1000 |
| CC(C)(NC(=O)c1ccc2c(C3CCCCC3)c3n(c2c1)CCOc1ccccc1-3)C(=O)N1CCN(c2ccccc2)CC1 [Example 2-291, N-[1,1-dimethyl-2-oxo-2-(4-phenylpiperazin-1-yl)ethyl]-12-cyclohexyl-6,7-dihydro-5-oxa-7a-azadibenzo[a,e]azulene-9-carboxamide] | < 100 |
| Cc1nc(C(C)(C)NC(=O)c2ccc3c(C4CCCCC4)c4n(c3c2)CCOc2ccccc2-4)n(CCO)c1C [Example 2-292, N-{1-[1-(2-hydroxyethyl)-4,5-dimethyl-1H-imidazol-2-yl]-1-methylethyl}-12-cyclohexyl-6,7-dihydro-5-oxa-7a-azadibenzo[a,e]azulene-9-carboxamide] | 100 to 1000 |
| Cc1nc(C(C)(C)NC(=O)c2ccc3c(C4CCCCC4)c4n(c3c2)CCOc2ccccc2-4)n(CC(=O)N(C)C)c1C [Example 2-293, N-[1-(1-dimethylcarbamoylmethyl-4,5-dimethyl-1H-imidazol-2-yl)-1-methylethyl]-12-cyclohexyl-6,7-dihydro-5-oxa-7a-azadibenzo[a,e]azulene-9-carboxamide] | 100 to 1000 |
| COC1CCN(C(=O)C(C)(C)NC(=O)c2ccc3c(C4CCCCC4)c4n(c3c2)CCOc2ccccc2-4)CC1 [Example 2-294, N-[2-(4-methoxypiperidin-1-yl)-1,1-dimethyl-2-oxoethyl]-12-cyclohexyl-6,7-dihydro-5-oxa-7a-azadibenzo[a,e]azulene-9-carboxamide] | < 100 |
| COCCN(C)C(=O)[C@H](Cc1ccc(O)cc1)NC(=O)c1ccc2c(C3CCCCC3)c3n(c2c1)CCOc1cc(OC)ccc1-3 [Example 2-295, N-{(S)-2-(4-hydroxyphenyl)-1-[N-(2-methoxyethyl)-N-methylcarbamoyl]ethyl}-12-cyclohexyl-3-methoxy-6,7-dihydro-5-oxa-7a-azadibenzo[a,e]azulene-9-carboxamide] | < 100 |
| COCCNC(=O)[C@H](Cc1ccc(O)cc1)NC(=O)c1ccc2c(C3CCCCC3)c3n(c2c1)CCOc1cc(OC)ccc1-3 [Example 2-296, N—[(S)-2-(4-hydroxyphenyl)-1-(2-methoxyethylcarbamoyl)ethyl]-12-cyclohexyl-3-methoxy-6,7-dihydro-5-oxa-7a-azadibenzo[a,e]azulene-9-carboxamide] | < 100 |
| COc1ccc2c(c1)OCCn1c-2c(C2CCCCC2)c2ccc(C(=O)N[C@@H](Cc3ccc(O)cc3)C(=O)N3CCC(OC)CC3)cc21 [Example 2-297, N—[(S)-1-(4-hydroxybenzyl)-2-(4-methoxypiperidin-1-yl)-2-oxoethyl]-12-cyclohexyl-3-methoxy-6,7-dihydro-5-oxa-7a-azadibenzo[a,e]azulene-9-carboxamide] | < 100 |
| O=C(O)c1ccc2c(C3CCCCC3)c3n(c2c1)CCOc1c(-c2cccnc2)cccc1-3 [Example 2-298, 12-cyclohexyl-4-(pyridin-3-yl)-6,7-dihydro-5-oxa-7a-azadibenzo[a,e]azulene-9-carboxylic acid hydrochloride] | < 100 |
| O=C(O)c1ccc2c(C3CCCCC3)c3n(c2c1)CCOc1c(-c2ccncc2)cccc1-3 [Example 2-299, 12-cyclohexyl-4-(pyridin-4-yl)-6,7-dihydro-5-oxa-7a-azadibenzo[a,e]azulene-9-carboxylic acid monohydrochloride] | < 100 |
| CCCN(CCN1CCCCC1)c1cccc2c1OCCn1c-2c(C2CCCCC2)c2ccc(C(N)=O)cc21 [Example 2-300, 12-cyclohexyl-4-{N-[2-(piperidin-1-yl)ethyl]-N-propylamino}-6,7-dihydro-5-oxa-7a-azadibenzo[a,e]azulene-9-carboxamide] | < 100 |
| CCN1CCN(C(=O)CN(CC)c2cccc3c2OCCn2c-3c(C3CCCCC3)c3ccc(C(=O)O)cc32)CC1 [Example 2-301, 12-cyclohexyl-4-{N-ethyl-N-[2-(4-ethylpiperazin-1-yl)-2-oxoethyl]amino}-6,7-dihydro-5-oxa-7a-azadibenzo[a,e]azulene-9-carboxylic acid dihydrochloride] | < 100 |
| O=C(O)c1ccc2c(C3CCCCC3)c3n(c2c1)CCOc1c(-c2cccc(CO)c2)cccc1-3 [Example 2-302, 12-cyclohexyl-4-(3-hydroxymethylphenyl)-6,7-dihydro-5-oxa-7a-azadibenzo[a,e]azulene-9-carboxylic acid] | < 100 |
| CC(=O)N1CCN(C(=O)C(C)(C)NC(=O)c2ccc3c(C4CCCCC4)c4n(c3c2)CCOc2ccccc2-4)CC1 [Example 2-303, N-[2-(4-acetylpiperazin-1-yl)-1,1-dimethyl-2-oxoethyl]-12-cyclohexyl-6,7-dihydro-5-oxa-7a-azadibenzo[a,e]azulene-9-carboxamide] | < 100 |
| CC(C)(NC(=O)c1ccc2c(C3CCCCC3)c3n(c2c1)CCOc1ccccc1-3)C(=O)N1CCN(CCO)CC1 [Example 2-304, N-{2-[4-(2-hydroxyethyl)piperazin-1-yl]-1,1-dimethyl-2-oxoethyl}-12-cyclohexyl-6,7-dihydro-5-oxa-7a-azadibenzo[a,e]azulene-9-carboxamide] | < 100 |
| COCCN1CCN(C(=O)C(C)(C)NC(=O)c2ccc3c(C4CCCCC4)c4n(c3c2)CCOc2ccccc2-4)CC1 [Example 2-305, N-{2-[4-(2-methoxyethyl)piperazin-1-yl]-1,1-dimethyl-2-oxoethyl}-12-cyclohexyl-6,7-dihydro-5-oxa-7a-azadibenzo[a,e]azulene-9-carboxamide] | < 100 |
| COc1cccc2c1OCCn1c-2c(C2CCCCC2)c2ccc(C(=O)NC(C)(C)C(=O)Nc3ccc(C(=O)O)cc3)cc21 [Example 2-306, 4-{2-[(12-cyclohexyl-4-methoxy-6,7-dihydro-5-oxa-7a-azadibenzo[a,e]azulene-9-carbonyl)amino]-2-methylpropionylamino}benzoic acid] | < 100 |
| COc1ccc(-c2cnc(C(C)(C)NC(=O)c3ccc4c(C5CCCCC5)c5n(c4c3)CCOc3ccccc3-5)[nH]2)cc1 [Example 2-307, N-{1-[5-(4-methoxyphenyl)-1H-imidazol-2-yl]-1-methylethyl}-12-cyclohexyl-6,7-dihydro-5-oxa-7a-azadibenzo[a,e]azulene-9-carboxamide] | < 100 |
| COc1ccc2c(c1)OCCn1c-2c(C2CCCCC2)c2ccc(C(=O)N[C@@H](Cc3ccc(O)cc3)CN(C)C)cc21 [Example 2-308, N—[(S)-2-dimethylamino-1-(4-hydroxybenzyl)ethyl]-12-cyclohexyl-3-methoxy-6,7-dihydro-5-oxa-7a-azadibenzo[a,e]azulene-9-carboxamide] | < 100 |
